# Results from patent publication US7022675B2, “Wound healing compositions” (University of Southern California, priority 1997, dated 2006).
# Legend:
# water intake = conditions: injected into the anterior diencephalon in the rat, Fitzsimons 1971; cited from earlier work
# [1] = tested on: full thickness dermal wounds; experiment: in vivo wound healing assay, full thickness dermal wounds in rats; set-up: species or system Sprague Dawley rats; conditions: 100 μg/wound in 10% carboxymethyl cellulose, daily for first five days; measured days 2, 4, 7 and 9
# Experimental: Analogs of angiotensin II and analogs of angiotensin II fragments having the structures disclosed herein were prepared using an automated peptide synthesizer and methods familiar to those having ordinary skill in the art. Each of the analogs was tested for its ability to accelerate wound healing according to the method described below. Results of procedures were used to determine the extent of wound closure at days 2, 4, 7 and 9, measured as a percentage of a vehicle-treated control wound. Since all of the analogs were not tested during the same experimental procedure, AII was included as a positive control for each group of peptides tested.
# Female Sprague Dawley rats, 12 weeks old, were obtained from Simonsen Laboratories, Gilroy, Calif. On the day of surgery, the rats received intramuscular ketamine/rompum anesthesia prior to preparation for surgery. […] At days 2, 4, 7 and 9, the area of the skin wounds was measured under methoxyflurane anesthesia (commercially available as Metofane from Pittman-Moore, Mundelein, Ill.). The area of the wound was determined by (1) tracing the wound shape onto graph paper (1×1 mm squares); (2) cutting out the shape; (3) weighing the paper and comparing the weight with a 1.5×1.5 cm paper cutout; and (4) counting the number of squares. In addition, on days 2 and 4 the area of granulation tissue was similarly determined.
# rat carotid artery = conditions: cited from earlier work; for neointimal formation: similar model, Janiak et al. 1992, CGP 42112 infused perivascularly for 14 days, losartan at low doses; for reduction of intimal hyperplasia / intimal area: treatment of rats, Pratt et al. 1992
# blood pressure [2] = conditions: cited from earlier work
# blood pressure [3] = conditions: intracerebroventricular infusion in the rat, concentrations 1,000 times higher than that of AII that increased blood pressure, Wright et al. 1989; cited from earlier work
# wound tissue = conditions: application to wound tissue; cited from earlier work
compound,measurement,setting,value
"AII(1-4): AII fragment (DRVY; Angiotensin 2; UniProt P01019 25-28, looked up, fragment)",effect on water intake,water intake,only a slight effect
His-Pro-Phe [AII(6-8)],wound closure relative to vehicle-treated control wounds,[1],not to be effective
CCCCc1nc(Cl)c(CO)n1Cc1ccc(-c2ccccc2-c2nn[nH]n2)cc1 [losartan],neointimal formation,rat carotid artery,ineffective
same,reduction of intimal hyperplasia / intimal area,rat carotid artery,95%
Cc1cc(Cn2cnc3c2C[C@@H](C(=O)O)N(C(=O)C(c2ccccc2)c2ccccc2)C3)ccc1N(C)C [PD 123319],reduction of intimal hyperplasia / intimal area,rat carotid artery,73%
CGP 42112,neointimal formation,rat carotid artery,prevented neointimal formation
"AII(1-7): fragment of AII (DRVYIHP; Angiotensin 2; UniProt P01019 25-31, looked up, fragment)","amount needed for a comparable pressor response, relative to AII",blood pressure [2]; Benter et al. 1993,"about 10,000 times more AII(1-7) than AII"
same,"dose needed for effects on blood pressure (pressor), relative to AII",blood pressure [2]; depending upon the model tested and route of administration,"10,000-100,000 times the dose of AII"
same,effect on water intake,water intake,completely inactive
"AII(5-8): AII fragment (IHPF; Angiotensin 2; UniProt P01019 29-32, looked up, fragment)",effect on blood pressure,blood pressure [3],minimal effect
same,effect on water intake,water intake,only a slight effect
"Asp-Arg-Val-Tyr-Ile-His-Pro-Phe (DRVYIHPF) [angiotensin II, positive control]",rate of wound healing,wound tissue,significantly increases
Tyr-Ile-His-Pro-Phe (YIHPF) [AII(4-8)],effect on blood pressure,blood pressure [3],minimal effect
same,effect on water intake,water intake,only a slight effect
same,wound closure relative to vehicle-treated control wounds,[1],not to be effective
